In the data set the test system is HepG2. Nature of the data set: Cytotoxicity in human HepG2 cells assessed as reduction in cell viability incubated for 48 hrs by MTT assay. The class given is cell-based. The following applies: hepg2, 48 h. For orientation: Formazan colour is commonly taken as a measure of viable cells.
For `COC(=O)C1=CO[C@@H](O[C@@H]2O[C@H](CO)[C@@H](O)[C@H](O)[C@H]2O)[C@@H]2[C@H](C)O[C@H](O)C[C@H]12`, the Activity result was “Non-Toxic”. In the case of `COC(=O)C1=CO[C@@H](O[C@@H]2O[C@H](C)[C@@H](O)[C@H](O)[C@H]2O)[C@@H]2[C@H](C)O[C@@H](O[C@H]3[C@H](O)[C@@H](O)[C@H](O[C@@H]4OC=C(C(=O)OC)[C@H]5C[C@H](OC)O[C@@H](C)[C@@H]45)O[C@@H]3CO)C[C@H]12` it was “Non-Toxic”; in that of `COC(=O)C1=CO[C@@H](O[C@@H]2O[C@H](CO[C@@H]3C[C@@H]4C(C(=O)OC)=CO[C@@H](O[C@@H]5O[C@H](CO)[C@@H](O)[C@H](O)[C@H]5O)[C@@H]4[C@H](C)O3)[C@@H](O)[C@H](O)[C@H]2O)[C@@H]2[C@H](C)O[C@@H](OC)C[C@H]12`, “Non-Toxic”; in that of `COC(=O)C1=CO[C@@H](O[C@@H]2O[C@H](C)[C@@H](O)[C@H](O)[C@H]2O)[C@@H]2[C@H](C)O[C@@H](O[C@@H]3[C@@H](O)[C@H](O[C@@H]4OC=C(C(=O)OC)[C@H]5C[C@@H](OC)O[C@@H](C)[C@@H]45)O[C@H](CO)[C@H]3O)C[C@H]12`, “Non-Toxic”. In the case of `COC(=O)C1=CO[C@@H](O[C@@H]2O[C@H](CO)[C@@H](O)[C@H](O)[C@H]2O)[C@@H]2[C@@H](C)[C@@H](O[C@H]3C[C@@H]4C(C(=O)OC)=CO[C@@H](O[C@@H]5O[C@H](CO)[C@@H](O)[C@H](O)[C@H]5O)[C@@H]4[C@@H](C)O3)C[C@H]12` it was “Non-Toxic”; in that of `COC(=O)C1=CO[C@@H](O[C@@H]2O[C@H](CO)[C@@H](O)[C@H](O)[C@H]2O[C@@H]2C[C@@H]3C(C(=O)OC)=CO[C@@H](O[C@@H]4O[C@H](CO)[C@@H](O)[C@H](O)[C@H]4O)[C@@H]3[C@H](C)O2)[C@@H]2[C@@H](C)[C@@H](O)C[C@H]12`, “Non-Toxic”.

Turning to `COC(=O)C1=CO[C@@H](O[C@@H]2O[C@H](CO)[C@@H](O)[C@H](O)[C@H]2O)[C@@H]2[C@H](C)O[C@@H](O)C[C@H]12` [MORRONISIDE], the Activity entry is recorded as “Non-Toxic”. In the case of `COC(=O)C1=CO[C@@H](O[C@@H]2O[C@H](CO)[C@@H](O)[C@H](O)[C@H]2O)[C@@H]2[C@H](C)O[C@H](O[C@H]3[C@H](O[C@@H]4OC=C(C(=O)OC)[C@H]5C[C@@H](OC)O[C@@H](C)[C@@H]45)O[C@H](CO)[C@@H](O)[C@@H]3O)C[C@H]12` it was “Non-Toxic”; in that of `COC(=O)C1=CO[C@@H](O[C@@H]2O[C@H](CO[C@@H]3C[C@@H]4C(C(=O)OC)=CO[C@@H](O[C@@H]5O[C@H](CO)[C@@H](O)[C@H](O)[C@H]5O)[C@@H]4[C@H](C)O3)[C@@H](O)[C@H](O)[C@H]2O)[C@@H]2[C@@H](C)[C@@H](O)C[C@H]12`, “Non-Toxic”; in that of `COC(=O)C1=CO[C@@H](O[C@@H]2O[C@H](C)[C@@H](O)[C@H](O)[C@H]2O)[C@@H]2[C@H](C)O[C@@H](O[C@@H]3[C@@H](O)[C@H](O[C@@H]4OC=C(C(=O)OC)[C@H]5C[C@H](OC)O[C@@H](C)[C@@H]45)O[C@H](CO)[C@H]3O)C[C@H]12`, “Non-Toxic”. In the case of `COC(=O)C1=CO[C@@H](O[C@@H]2O[C@H](CO)[C@@H](O)[C@H](O)[C@H]2O)[C@@H]2[C@H](C)O[C@H](O[C@H]3[C@H](O[C@@H]4OC=C(C(=O)OC)[C@H]5C[C@H](OC)O[C@@H](C)[C@@H]45)O[C@H](CO)[C@@H](O)[C@@H]3O)C[C@H]12` it was “Non-Toxic”; in that of `COC(=O)C1=CO[C@@H](O[C@@H]2O[C@H](CO)[C@@H](O[C@H]3C[C@@H]4C(C(=O)OC)=CO[C@@H](O[C@@H]5O[C@H](C)[C@@H](O)[C@H](O)[C@H]5O)[C@@H]4[C@H](C)O3)[C@H](O)[C@H]2O)[C@@H]2[C@@H](C)[C@@H](O)C[C@H]12`, “Non-Toxic”. On to `COC(=O)C1=CO[C@@H](O[C@@H]2O[C@H](CO[C@@H]3C[C@@H]4C(C(=O)OC)=CO[C@@H](O[C@@H]5O[C@H](CO)[C@@H](O)[C@H](O)[C@H]5O)[C@@H]4[C@H](C)O3)[C@@H](O)[C@H](O)[C@H]2O)[C@@H]2[C@H](C)O[C@H](OC)C[C@H]12`, for which the Activity entry is reported as “Non-Toxic”. In the case of `CCO[C@@H]1C[C@@H]2C(C(=O)OC)=CO[C@@H](O[C@@H]3O[C@H](CO)[C@@H](O)[C@H](O)[C@H]3O)[C@@H]2[C@H](C)O1` it was “Non-Toxic”; in that of `COC(=O)C1=CO[C@@H](O[C@@H]2O[C@H](CO)[C@@H](O)[C@H](O)[C@H]2O)[C@@H]2[C@H](C)O[C@@H](O[C@H]3[C@H](O[C@@H]4OC=C(C(=O)OC)[C@H]5C[C@H](OC)O[C@@H](C)[C@@H]45)O[C@H](CO)[C@@H](O)[C@@H]3O)C[C@H]12`, “Non-Toxic”; in that of `CCO[C@H]1C[C@@H]2C(C(=O)OC)=CO[C@@H](O[C@@H]3O[C@H](CO[C@H]4C[C@@H]5C(C(=O)OC)=CO[C@@H](O[C@@H]6O[C@H](CO)[C@@H](O)[C@H](O)[C@H]6O)[C@@H]5[C@H](C)O4)[C@@H](O)[C@H](O)[C@H]3O)[C@@H]2[C@H](C)O1`, “Non-Toxic”. In the case of `CCO[C@@H]1C[C@@H]2C(C(=O)OC)=CO[C@@H](O[C@@H]3O[C@H](CO[C@H]4C[C@@H]5C(C(=O)OC)=CO[C@@H](O[C@@H]6O[C@H](CO)[C@@H](O)[C@H](O)[C@H]6O)[C@@H]5[C@H](C)O4)[C@@H](O)[C@H](O)[C@H]3O)[C@@H]2[C@H](C)O1` it was “Non-Toxic”; in that of `COC(=O)C1=CO[C@@H](O[C@@H]2O[C@H](CO)[C@@H](O)[C@H](O)[C@H]2O)[C@@H]2[C@@H](C)[C@@H](O)C[C@H]12` [LOGANIN], “Non-Toxic”. With `COC(=O)C1=CO[C@@H](O[C@@H]2O[C@H](CO)[C@@H](O)[C@H](O)[C@H]2O)[C@@H]2[C@H](C)O[C@@H](OC)C[C@H]12`, the Activity result is reported as “Non-Toxic”.

As for `C=C[C@H]1[C@H](O[C@@H]2O[C@H](CO)[C@@H](O)[C@H](O)[C@H]2O)OC=C2C(=O)OCC[C@H]21` [SWEROSIDE], the Activity entry is “Non-Toxic”. In the case of `COC(=O)C1=CO[C@@H](O[C@@H]2O[C@H](CO)[C@@H](O)[C@H](O)[C@H]2O)[C@@H]2[C@H](C)[C@@H](O)C[C@H]12` it was “Non-Toxic”; in that of `COC(=O)C1=CO[C@@H](O[C@@H]2O[C@H](CO[C@H]3C[C@@H]4C(C(=O)OC)=CO[C@@H](O[C@@H]5O[C@H](CO)[C@@H](O)[C@H](O)[C@H]5O)[C@@H]4[C@H](C)O3)[C@@H](O)[C@H](O)[C@H]2O)[C@@H]2[C@H](C)O[C@@H](OC)C[C@H]12`, “Non-Toxic”; in that of `CCO[C@H]1C[C@@H]2C(C(=O)OC)=CO[C@@H](O[C@@H]3O[C@H](CO)[C@@H](O)[C@H](O)[C@H]3O)[C@@H]2[C@H](C)O1`, “Non-Toxic”. In the case of `COC(=O)C1=CO[C@@H](O[C@@H]2O[C@H](CO)[C@@H](O)[C@H](O)[C@H]2O)[C@@H]2[C@H](C)O[C@@H](OC[C@H]3O[C@@H](O[C@@H]4OC=C(C(=O)OC)[C@H]5C[C@@H](OC)O[C@@H](C)[C@@H]45)[C@H](O)[C@@H](O)[C@@H]3O)C[C@H]12` it was “Non-Toxic”. In the case of `COC(=O)C1=CO[C@@H](O[C@@H]2O[C@H](CO)[C@@H](O)[C@H](O)[C@H]2O)[C@@H]2[C@H](C)O[C@H](OC)C[C@H]12` it was “Non-Toxic”.

The values are drawn from ChEMBL document CHEMBL4130553, “Cornusides A-O, Bioactive Iridoid Glucoside Dimers from the Fruit of Cornus officinalis” (J Nat Prod, 2017).
